For one assay, the target named is MET (human) (Homo sapiens, UniProt P08581). Briefly: MET (human) AlphaScreen kinase assay, Km of ATP. Format: biochemical. Conditions: AlphaScreen, Km of ATP; read-out: Met biochemical IC50. The method in brief:
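Human MET at lot-optimised concentration in 50 mM Tris pH 7.4 buffer with 1 mM DTT, compound at 1% DMSO final; enzyme starts the reaction, 60 min at RT.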
In general terms: Alpha assays give light when donor and acceptor beads are brought close together.

In another assay the target is RON (human) (Homo sapiens, UniProt Q04912). The experiment in a line: RON (human) AlphaScreen kinase assay, Km of ATP. Format: biochemical. To be noted: AlphaScreen, Km of ATP; read-out: RON biochemical IC50. The method in brief: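 Reaction was started with enzyme and run 30 min at RT. PT66 donor/acceptor beads in an EDTA-containing Tris pH 7.5 buffer were then added, and the signal was read after 1 h.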
Sequence of RON (human) (Q04912 25-1400): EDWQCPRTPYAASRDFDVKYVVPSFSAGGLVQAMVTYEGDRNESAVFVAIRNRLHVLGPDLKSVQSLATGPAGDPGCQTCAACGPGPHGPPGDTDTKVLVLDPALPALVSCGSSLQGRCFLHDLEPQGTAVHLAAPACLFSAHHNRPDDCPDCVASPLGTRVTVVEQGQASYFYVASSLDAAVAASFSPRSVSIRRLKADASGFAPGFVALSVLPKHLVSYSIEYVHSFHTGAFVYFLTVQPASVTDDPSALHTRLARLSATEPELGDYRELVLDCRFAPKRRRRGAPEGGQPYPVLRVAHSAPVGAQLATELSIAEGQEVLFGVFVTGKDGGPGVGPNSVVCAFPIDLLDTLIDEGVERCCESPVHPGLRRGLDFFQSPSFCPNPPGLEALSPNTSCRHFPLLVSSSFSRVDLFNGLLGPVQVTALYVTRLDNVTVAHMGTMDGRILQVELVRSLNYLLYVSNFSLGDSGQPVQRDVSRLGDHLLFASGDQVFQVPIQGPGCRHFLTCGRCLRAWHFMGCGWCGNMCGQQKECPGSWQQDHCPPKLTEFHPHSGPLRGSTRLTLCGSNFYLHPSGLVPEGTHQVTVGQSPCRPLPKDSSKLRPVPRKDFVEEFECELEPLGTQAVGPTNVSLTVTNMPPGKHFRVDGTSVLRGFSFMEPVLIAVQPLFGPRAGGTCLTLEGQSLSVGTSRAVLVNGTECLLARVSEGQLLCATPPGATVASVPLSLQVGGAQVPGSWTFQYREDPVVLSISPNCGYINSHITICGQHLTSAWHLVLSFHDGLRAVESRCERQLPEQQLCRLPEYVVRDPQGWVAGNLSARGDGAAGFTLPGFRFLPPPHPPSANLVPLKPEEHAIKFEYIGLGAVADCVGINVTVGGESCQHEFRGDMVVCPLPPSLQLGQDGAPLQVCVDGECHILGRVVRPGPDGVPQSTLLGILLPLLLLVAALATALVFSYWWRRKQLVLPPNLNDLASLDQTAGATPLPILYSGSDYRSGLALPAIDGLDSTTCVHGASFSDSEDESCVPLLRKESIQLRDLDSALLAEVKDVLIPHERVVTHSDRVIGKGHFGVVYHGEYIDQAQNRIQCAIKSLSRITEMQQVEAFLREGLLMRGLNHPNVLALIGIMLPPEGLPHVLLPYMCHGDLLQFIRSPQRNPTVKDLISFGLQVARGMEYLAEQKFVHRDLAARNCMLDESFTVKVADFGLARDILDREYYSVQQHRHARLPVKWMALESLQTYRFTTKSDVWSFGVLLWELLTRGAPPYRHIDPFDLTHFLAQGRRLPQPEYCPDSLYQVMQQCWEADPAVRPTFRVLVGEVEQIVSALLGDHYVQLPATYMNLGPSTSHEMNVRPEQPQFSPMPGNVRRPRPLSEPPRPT

What is called IC50 is the concentration needed to halve the response being measured.

Each structure is given as a SMILES string.

Sequence of MET (human) (P08581 25-1390): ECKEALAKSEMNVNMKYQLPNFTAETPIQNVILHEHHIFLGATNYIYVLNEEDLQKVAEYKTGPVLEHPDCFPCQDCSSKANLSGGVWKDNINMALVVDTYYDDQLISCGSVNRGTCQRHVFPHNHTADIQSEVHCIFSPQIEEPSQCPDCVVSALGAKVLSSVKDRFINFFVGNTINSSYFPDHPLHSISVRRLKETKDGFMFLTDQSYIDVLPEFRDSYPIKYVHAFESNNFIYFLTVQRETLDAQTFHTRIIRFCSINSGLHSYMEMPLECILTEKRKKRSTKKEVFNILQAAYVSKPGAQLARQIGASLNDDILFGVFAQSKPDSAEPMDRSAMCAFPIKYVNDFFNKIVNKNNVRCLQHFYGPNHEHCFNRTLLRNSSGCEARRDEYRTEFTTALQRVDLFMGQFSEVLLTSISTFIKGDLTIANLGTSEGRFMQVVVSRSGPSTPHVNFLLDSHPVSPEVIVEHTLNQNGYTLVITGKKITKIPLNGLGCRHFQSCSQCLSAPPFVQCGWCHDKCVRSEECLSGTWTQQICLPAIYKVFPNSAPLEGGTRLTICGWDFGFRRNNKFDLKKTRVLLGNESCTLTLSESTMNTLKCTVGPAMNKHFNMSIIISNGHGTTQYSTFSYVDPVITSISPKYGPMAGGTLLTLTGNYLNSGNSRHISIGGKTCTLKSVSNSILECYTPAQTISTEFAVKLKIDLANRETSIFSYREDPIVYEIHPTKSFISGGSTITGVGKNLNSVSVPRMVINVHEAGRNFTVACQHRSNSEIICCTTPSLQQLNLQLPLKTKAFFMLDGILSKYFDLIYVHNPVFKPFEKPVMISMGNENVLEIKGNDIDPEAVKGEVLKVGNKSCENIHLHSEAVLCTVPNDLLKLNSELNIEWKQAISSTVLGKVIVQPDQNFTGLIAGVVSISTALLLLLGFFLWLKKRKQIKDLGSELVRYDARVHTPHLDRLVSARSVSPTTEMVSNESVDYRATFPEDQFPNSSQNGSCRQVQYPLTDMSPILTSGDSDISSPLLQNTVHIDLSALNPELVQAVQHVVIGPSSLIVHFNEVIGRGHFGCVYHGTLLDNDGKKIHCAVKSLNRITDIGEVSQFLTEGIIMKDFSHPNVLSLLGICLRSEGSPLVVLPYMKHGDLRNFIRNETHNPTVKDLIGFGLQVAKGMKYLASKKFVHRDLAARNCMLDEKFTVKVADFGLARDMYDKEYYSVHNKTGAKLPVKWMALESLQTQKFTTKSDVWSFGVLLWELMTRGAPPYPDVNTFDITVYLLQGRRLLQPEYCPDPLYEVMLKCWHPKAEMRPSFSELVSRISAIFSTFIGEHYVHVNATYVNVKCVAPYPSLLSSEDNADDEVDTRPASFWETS

Regarding `C[C@@H](Oc1c(N)ncc2c(C3=CCN(C(=O)[C@@H]4CCCN4)CC3)coc12)c1c(Cl)ccc(F)c1Cl` [Example 22, (4-{6-Amino-7-[(R)-1-(2,6-dichloro-3-fluorophenyl)ethoxy]furo[3,2-c]pyridin-3-yl}-3,6-dihydro-2H-pyridin-1-yl)-(S)-pyrrolidin-2-ylmethanone], the IC50 on MET (human) and on RON (human) was under 500 nM in each case.

On to `CC(Oc1c(N)ncc2c(-c3cnn(C4CCNCC4)c3)coc12)c1cccc(-c2ccccc2)c1` (centres unmarked) [Example 444, 7-(1-Biphenyl-3-ylethoxy)-3-(1-piperidin-4-yl-1H-pyrazol-4-yl)furo[3,2-c]pyridin-6-ylamine], for which the half-inhibitory concentration (IC50) on MET (human) and on RON (human) was 500 to 5000 nM each time.

On to `C[C@@H](Oc1c(N)ncc2c(-c3csc(CN4CCC(O)C4)c3)coc12)c1c(Cl)ccc(F)c1Cl` (stereo partly drawn) [Example 307, 1-(4-{6-Amino-7-[(R)-1-(2,6-dichloro-3-fluorophenyl)-ethoxy]furo[3,2-c]pyridin-3-yl}thiophen-2-ylmethyl)pyrrolidin-3-ol], for which the IC50 at MET (human) and at RON (human) was under 500 nM throughout.

Consider `C[C@@H](Oc1c(N)ncc2c(-c3ccc(C(=O)O)s3)coc12)c1c(Cl)ccc(F)c1Cl` [Example 206, 5-{6-Amino-7-[(R)-1-(2,6-dichloro-3-fluorophenyl)ethoxy]-furo[3,2-c]pyridin-3-yl}-thiophene-2-carboxylic acid], for which the half-maximal inhibitory concentration (IC50) at MET (human) is under 500 nM; at RON (human), 500 to 5000 nM.

For `C[C@@H](N)C(=O)N1CC=C(c2coc3c(O[C@H](C)c4c(Cl)ccc(F)c4Cl)c(N)ncc23)CC1` [Example 252, (2R)-2-Amino-1-[4-{6-amino-7-[(1R)-1-(2,6-dichloro-3-fluoro-phenyl)ethoxy]furo[3,2-c]pyridin-3-yl}-3,6-dihydropyridin-1(2H)-yl]propan-1-one], the concentration for half-maximal inhibition (IC50) at MET (human) and at RON (human) was under 500 nM each time.

Regarding `C[C@@H](Oc1c(N)ncc2c(-c3ccsc3)coc12)c1c(Cl)ccc(F)c1Cl` [Example 134, 7-[(R)-(2,6-Dichloro-3-fluorophenyl)ethoxy]-3-thiophen-3-ylfuro[3,2-c]pyridin-6-ylamine], the half-inhibitory concentration (IC50) on MET (human) and at RON (human) was 500 to 5000 nM in each case.

Regarding `C[C@@H](Oc1c(N)ncc2c(-c3cnn(C4CCN(C=O)CC4)c3)coc12)c1c(Cl)ccc(F)c1Cl` [Example 277, 4-(4-{6-Amino-7-[(1R)-1-(2,6-dichloro-3-fluorophenyl)ethoxy]furo[3,2-c]pyridin-3-yl}-1H-pyrazol-1-yl)piperidine-1-carbaldehyde], the IC50 at MET (human) and at RON (human) was 500 to 5000 nM in each case.

The values are drawn from patent publication US8022206B2 (OSI Pharmaceuticals, LLC, priority 2008, dated 2011).
